From paper PMC10665234, “Nutritional Supplementation and Enhanced Antioxidant Function by Dietary Intake of Selenoneine and Other Selenium Compounds in Red Seabream Pagrus major” (Marine Biotechnology (New York, N.y.), 2023)

How the values were obtained:
Type in all cases: in vivo, red seabream Pagrus major
red seabream = assay: Oxidation-reduction potential (ORP) in white muscle; settings: 2 weeks; 1 or 2 ppm in diet
Procedure: ORP was measured with ORP electrode (9300, Horiba, Kyoto, […]). The electrode was pierced into muscle and pressed gently until the potential stabilized for 60 s.

[1] = Selenoneine concentration in white muscle and blood cell by HPLC-ICP-MS (82Se); settings: fish cultured for 4 weeks
Procedure: (§1) Red seabream fry (average body weight of 5.4 g) was obtained from private seed and seedling production company (Oita, Japan) and cultured for seven months up to average body weight of 250 g. Chemical composition of control diet was containing crude protein 50%; […]; Ca 2.3%; ash 16.0%; and phosphorus 1.5%. Each selenium-added diet was fed twice a day for 4 weeks in an amount of 1% of the average body weight. Body weight of fish in each tank was measured when fish were sampled and amount of diet was calculated according to the body weight of every sampling day. The added selenium concentrations in the diets were set in 0 ppm, 1 ppm, and 2 ppm selenium according to the previous study (Tohfuku et al. [2021]). After that, they were fed a commercial diet twice a day for 1 week. The test groups were the control group, the sodium selenite group (1 mg Se/kg feeding group and 2 mg Se/kg feeding group), the selenomethionine group (1 mg Se/kg feeding group and 2 mg Se/kg feeding group), and the selenoneine group (1 mg Se/kg feeding group and 2 mg Se/kg feeding group) were set. The number of fish raised was 15 from the start of rearing in each tank until the 2nd week, 10 from the 3rd to 4th week, and 5 in the 5th week. […] We reared red seabream by feeding of 1% dry pellet containing of sodium selenite, selenomethionine, or selenoneine of body weight twice a day for 4 weeks. After that, we replaced to 1% of commercial dry pellet of body weight twice a day for 1 week from the selenium supplementation. Average water temperature was 20.9 ℃ (19.0–23.9 ℃) and average dissolved oxygen was 7.41 mg/L. The body weight change of red seabream for 5 weeks is shown in Table S2.
(§2) Red seabream was anesthetized by adding 2 mL of anesthetic (1/100 volume of 2-methylquinoline dissolved in ethanol) to 1 L of seawater. A small amount of an anticoagulant (heparin sodium dissolved in physiological saline; 800 units/mL) was placed in a syringe in advance, and blood was collected from the caudal peduncle of each fish. The collected blood was centrifuged at 5000 rpm for 5 min (4 °C), divided into a plasma fraction and a precipitated fraction, and stored at − 50 °C. The precipitated fraction was used for analysis as the blood cell fraction.
Selenoneine was separated by chromatography using a Shodex GF-310 column (4.5 mm × 150 mm; Showa Denko, Tokyo, Japan) equilibrated with 100 mM ammonium formate buffer containing 0.1% (w/v) Igepal CA-630 (MP Biomedicals, CA, USA). The injection volume was at 10 μL. The mobile phase delivered at 0.5 mL/min isocratically. ^82Se was detected with high performance liquid chromatography inductively coupled plasma mass spectrometry (HPLC-ICP-MS; Agilent 1100 Series and Agilent 7500 Series, Agilent Technology) (Yamashita and Yamashita [2010]). During separation, selenoneine was eluted at a retention time of 200 s, and the selenium concentration was determined using selenoneine as a standard.

[2] = Total selenium concentrations in the tissues of red seabream after feeding selenium-supplemented dry pellet (fluorometric assay with 2,3-diamino-naphthalene)
Procedure: as §1, §2
Total selenium concentration was determined by fluorometric assay with 2,3-diamino-naphthalene, after digestion in 1.5 mL of nitric acid and perchloric acid (1:2 in volume) at 200–220 ℃ (Watkinson [1966]; Yamashita and Yamashita [2010]).

[3] = 5 weeks (4 weeks supplementation, then 1 week commercial diet), diet 1 mg Se/kg added
[4] = 5 weeks (4 weeks supplementation, then 1 week commercial diet), diet 2 mg Se/kg added

With `C[Se]CC[C@H](N)C(=O)O` [Selenomethionine, Seleno-L-methionine] the “ORP in white muscle compared to control” value (red seabream) was “reduced ORP”.

In the case of `O=[Se]([O-])[O-].[Na+].[Na+]` [Sodium selenite, reference compound], the “ORP in white muscle compared to control” value (red seabream) is reported as “reduced ORP”, the “Selenoneine concentration, blood cell” value ([1]; diet 1 mg Se/kg added) is reported as 1.98 ± 0.39 mg Se/kg and the “Selenoneine concentration, blood cell” value ([1]; diet 2 mg Se/kg added) is reported as 1.91 ± 0.43 mg Se/kg. The “Selenoneine concentration, white muscle” value ([1]; diet 1 mg Se/kg added) was 0.019 ± 0.002 mg Se/kg, the “Selenoneine concentration, white muscle” value ([1]; diet 2 mg Se/kg added) was 0.020 ± 0.003 mg Se/kg and the “Total selenium content, blood cell” value ([2]; 2 weeks, diet 1 mg Se/kg added) was 2.44 ± 0.27 mg Se/kg. For the same compound, the “Total selenium content, blood cell” value ([2]; 2 weeks, diet 2 mg Se/kg added) was 2.49 ± 0.29 mg Se/kg, the “Total selenium content, blood cell” value ([2]; 4 weeks, diet 1 mg Se/kg added) was 3.11 ± 0.40 mg Se/kg and the “Total selenium content, blood cell” value ([2]; 4 weeks, diet 2 mg Se/kg added) was 2.86 ± 0.17 mg Se/kg. The “Total selenium content, blood cell” value [2, 3] was 3.18 ± 0.76 mg Se/kg, the “Total selenium content, blood cell” value [2, 4] was 3.13 ± 0.48 mg Se/kg and the “Total selenium content, brain” value ([2]; 2 weeks, diet 1 mg Se/kg added) was 0.49 ± 0.03 mg Se/kg. The “Total selenium content, brain” value ([2]; 2 weeks, diet 2 mg Se/kg added) was 0.50 ± 0.03 mg Se/kg, the “Total selenium content, brain” value ([2]; 4 weeks, diet 1 mg Se/kg added) was 0.54 ± 0.07 mg Se/kg and the “Total selenium content, brain” value ([2]; 4 weeks, diet 2 mg Se/kg added) was 0.45 ± 0.10 mg Se/kg. The “Total selenium content, brain” value [2, 3] was 0.35 ± 0.09 mg Se/kg, the “Total selenium content, brain” value [2, 4] was 0.33 ± 0.11 mg Se/kg and the “Tissues in which total selenium was accumulated compared with the control group” value ([2]; diet 1 mg Se/kg and 2 mg Se/kg) was “white muscle, kidney, and hepatopancreas”. For the same compound, the “Total selenium content, heart” value ([2]; 2 weeks, diet 1 mg Se/kg added) was 1.05 ± 0.20 mg Se/kg, the “Total selenium content, heart” value ([2]; 2 weeks, diet 2 mg Se/kg added) was 0.99 ± 0.10 mg Se/kg and the “Total selenium content, heart” value ([2]; 4 weeks, diet 1 mg Se/kg added) was 1.27 ± 0.11 mg Se/kg. For the same compound, the “Total selenium content, heart” value ([2]; 4 weeks, diet 2 mg Se/kg added) was 1.22 ± 0.08 mg Se/kg, the “Total selenium content, heart” value [2, 3] was 1.20 ± 0.09 mg Se/kg and the “Total selenium content, heart” value [2, 4] was 1.04 ± 0.07 mg Se/kg. For the same compound, the “Total selenium content, hepatopancreas” value ([2]; 2 weeks, diet 1 mg Se/kg added) was 1.12 ± 0.16 mg Se/kg, the “Total selenium content, hepatopancreas” value ([2]; 2 weeks, diet 2 mg Se/kg added) was 1.31 ± 0.15 mg Se/kg and the “Total selenium content, hepatopancreas” value ([2]; 4 weeks, diet 1 mg Se/kg added) was 1.40 ± 0.19 mg Se/kg. For the same compound, the “Total selenium content, hepatopancreas” value ([2]; 4 weeks, diet 2 mg Se/kg added) was 1.45 ± 0.13 mg Se/kg, the “Total selenium content, hepatopancreas” value [2, 3] was 1.31 ± 0.23 mg Se/kg and the “Total selenium content, hepatopancreas” value [2, 4] was 1.28 ± 0.18 mg Se/kg. The “Total selenium content, kidney” value ([2]; 2 weeks, diet 1 mg Se/kg added) was 2.46 ± 0.31 mg Se/kg, the “Total selenium content, kidney” value ([2]; 2 weeks, diet 2 mg Se/kg added) was 2.50 ± 0.19 mg Se/kg and the “Total selenium content, kidney” value ([2]; 4 weeks, diet 1 mg Se/kg added) was 3.07 ± 0.24 mg Se/kg. The “Total selenium content, kidney” value ([2]; 4 weeks, diet 2 mg Se/kg added) was 3.06 ± 0.34 mg Se/kg, the “Total selenium content, kidney” value [2, 3] was 2.60 ± 0.32 mg Se/kg and the “Total selenium content, kidney” value [2, 4] was 2.71 ± 0.39 mg Se/kg. The “Total selenium content, spleen” value ([2]; 2 weeks, diet 1 mg Se/kg added) was 2.58 ± 0.16 mg Se/kg, the “Total selenium content, spleen” value ([2]; 2 weeks, diet 2 mg Se/kg added) was 2.80 ± 0.25 mg Se/kg and the “Total selenium content, spleen” value ([2]; 4 weeks, diet 1 mg Se/kg added) was 3.09 ± 0.47 mg Se/kg. The “Total selenium content, spleen” value ([2]; 4 weeks, diet 2 mg Se/kg added) was 2.94 ± 0.22 mg Se/kg, the “Total selenium content, spleen” value [2, 3] was 2.80 ± 0.28 mg Se/kg and the “Total selenium content, spleen” value [2, 4] was 2.47 ± 0.35 mg Se/kg. For the same compound, the “Total selenium content, white muscle” value ([2]; 2 weeks, diet 1 mg Se/kg added) was 0.39 ± 0.02 mg Se/kg, the “Total selenium content, white muscle” value ([2]; 2 weeks, diet 2 mg Se/kg added) was 0.40 ± 0.02 mg Se/kg and the “Total selenium content, white muscle” value ([2]; 4 weeks, diet 1 mg Se/kg added) was 0.39 ± 0.01 mg Se/kg. The “Total selenium content, white muscle” value ([2]; 4 weeks, diet 2 mg Se/kg added) was 0.39 ± 0.03 mg Se/kg, the “Total selenium content, white muscle” value [2, 3] was 0.38 ± 0.06 mg Se/kg and the “Total selenium content, white muscle” value [2, 4] was 0.36 ± 0.05 mg Se/kg.
